The target of this assay is T1, CCR6 (Homo sapiens, UniProt P51684).
T1 sequence (P51684 1-374): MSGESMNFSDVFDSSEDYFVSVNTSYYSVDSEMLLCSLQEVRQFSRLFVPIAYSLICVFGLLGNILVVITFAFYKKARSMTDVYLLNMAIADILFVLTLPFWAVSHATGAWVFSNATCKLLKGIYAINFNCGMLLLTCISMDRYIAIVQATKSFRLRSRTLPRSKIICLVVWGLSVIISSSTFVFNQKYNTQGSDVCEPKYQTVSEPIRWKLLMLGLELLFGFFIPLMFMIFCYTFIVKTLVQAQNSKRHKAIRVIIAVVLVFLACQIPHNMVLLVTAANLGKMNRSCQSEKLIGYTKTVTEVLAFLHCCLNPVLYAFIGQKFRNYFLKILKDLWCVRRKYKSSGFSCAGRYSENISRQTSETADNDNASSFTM
The experiment in a line: CCL20-mediated CCR6+ human T cell chemotaxis assay. The assay is classed as cell-based.

For the compound `CC(C)(C(=O)NCC1CN(C2Cc3ccccc3C2)C(=O)CO1)c1ccc(Cl)cc1` (stereo not shown) [OXM3], the “activity on CCR6” value was “neither OXM3 nor OXM4 are active”.
Take `O=C1COC(CNC(=O)C2(c3ccccc3)CC2)CN1C1Cc2ccccc2C1` (stereo not shown) [OXM4]: the “activity on CCR6” value is on record as “neither OXM3 nor OXM4 are active”.
For the compound “CCL20: cognate chemokine ligand (agonist) of CCR6 (Peprotech)”, for the setting “mean ± s.d., n = 5”, the “pEC50, CCL20-induced CCR6+ human T cell chemotaxis” value came to 9.7 ± 0.9. Further, the EC50 (read-out: EC50, CCL20-induced CCR6+ human T cell chemotaxis, n = 5) was found to be 190 pM.

The EC50 is the midpoint of the concentration-response curve.

The values above are taken from PMC11365967 (Nature Communications, 2024).
